Read-outs that look alike come from different tables or passages of the source.

Experiment [1] deals with T47D human breast cancer cells. Description: Alkaline phosphatase assay in human breast cancer cell line T47D. The class given is cell-based. The protocol: Alkaline Phosphatase Assay in Human Breast Cancer Cell Line T47D
T47D human breast cancer cells were grown in RPMI medium without phenol red (Invitrogen) containing 10% (v/v) heat-inactivated fetal bovine serum (FBS; Hyclone), 1% (v/v) penicillin-streptomycin (Invitrogen), 1% (w/v) glutamine (Invitrogen), and […] insulin (Sigma). Incubation conditions were 37° C. in a humidified 5% (v/v) carbon dioxide environment.
The cells were plated in 96-well tissue culture plates at 10,000 cells per well in assay medium [RPMI medium without phenol red (Invitrogen) containing 5% (v/v) charcoal-treated FBS (Hyclone) and 1% (v/v) penicillin-streptomycin (Invitrogen)]. Two days later, the medium was decanted and test compound or control were added at a final concentration of 0.1% (v/v) dimethyl sulfoxide in fresh assay medium. Twenty-four hours later, an alkaline phosphatase assay was performed using a SEAP kit (BD Biosciences Clontech, Palo Alto, Calif.). Briefly, the medium was decanted and the cells were fixed for 30 minutes at room temperature with 5% (v/v) formalin (Sigma). The cells were washed once with room temperature Hank's buffered saline solution (Invitrogen). Equal volumes (0.05 mL) of 1× Dilution Buffer, Assay Buffer and 1:20 substrate/enhancer mixture were then added. After 1 hour incubation at room temperature in the dark, the lysate was transferred to a white 96-well plate (Dynex) and luminescence was read using a LuminoSkan Ascent (Thermo Electron, Woburn, Mass.).

Experiment [2] has as its system A549 Human lung carcinoma cells. Description: Transient transfection and Steady Glo luciferase assay in A549 cells with dexamethasone challenge. The class given is cell-based. How it is done: Transient Transfection and Steady Glo Luciferase Assay
A549 Human lung carcinoma cells were grown in F-12K Nutrient Mixture containing 10% (v/v) fetal bovine serum (FBS; Invitrogen), 2 mM glutamine and 0.15% […] (Invitrogen)
A549 cells were split 1 to 3 in 175 cm tissue culture flask. The cells were incubated at 37° C. in CO2 incubator until the cells were 95% confluent (typically 24-30 hours).
The following solutions were prepared in sterile tubes: (a) Solution A: 1.5 μg/ml of DNA in 8.5 ml OPTI-MEM I Reduced Serum Medium. (GIBCO cat# 31985) and (b) Solution B: 6 μl/ml of DMRIE-C Reagent into […] OPTI-MEM I. The two solutions were combined and mixed gently, then incubated at room temperature for 40 minutes.
The A549 cells prepared above were washed with […] of OPTI-MEM I. The medium was removed and 17 ml of the lipid-DNA complex solution was overlayed onto cells. The cells ere then incubated for 16 h at 37° C. in CO2 incubator. The DNA-containing medium was removed and 30 ml of growth medium was added. (5% Charcoal treated FBS) After 5-6 h, the cells were seeded in a 96 well plate and the cells incubated overnight at 37° C. in CO2 incubator.
To each well was then added 5 μl of test compounds and the cells incubated at 37° C. for 10 min. 5 μL of dexamathasone (CAS [50-02-2]), a glucocorticoid agonist, solution was then added to each well for challenger and the cells incubated at 37° C. in CO2 incubator for 24 h. 100 μl of Luc-assay buffer was then added into each cell well and the cells incubated for 30 min at room temperature. A 150 μL sample from each well was then transferred into a DYNEX Microlitel plate and read on Top-counter.

Where [3] appears, read: T47D, 24 h, read-out: T47D IC50 (nM).
Where [4] appears, read: A549, 24 h, read-out: A549 IC50 (nM).
Where [5] appears, read: T47D cells, alkaline phosphatase readout, 24 h with test compound, read-out: T47D IC50.
[6] abbreviates: transfected A549 cells, luciferase readout, challenged with dexamethasone (glucocorticoid agonist), 24 h, read-out: A549 IC50.

The term IC50 denotes the midpoint of a concentration-inhibition curve. In the case of `CCOP(=O)(OCC)c1ccc([C@H]2C[C@]3(C)C(=O)CC[C@H]3[C@@H]3CCC4=CC(=O)CCC4=C32)cc1` [Compound 1], the IC50 in experiment [1] (setting [3]) was over 1000 nM; in experiment [2] (setting [4]) it was 254 nM.
As to `C[C@]12C[C@H](c3ccc(P(C)(C)=O)cc3)C3=C4CCC(=O)C=C4CC[C@H]3[C@@H]1CCC2=O` [Compound 2], the IC50 in experiment [1] (setting [5]) is over 1000 nM; in experiment [2] (setting [6]), over 710 nM.
Take `C=C1CCO[C@]12CC[C@H]1[C@@H]3CCC4=CC(=O)CCC4=C3[C@@H](c3ccc(P(=O)(OCC)OCC)cc3)C[C@@]12C` [Compound 3]: the results for the IC50 in experiment [1] (setting [3]) and in experiment [2] (setting [4]) were 12 nM and 238 nM, respectively.
Consider `C=C1CCO[C@]12CC[C@H]1[C@@H]3CCC4=CC(=O)CCC4=C3[C@@H](c3ccc(P(C)(C)=O)cc3)C[C@@]12C` [Compound 4], for which the IC50 in experiment [1] (setting [5]) worked out at 3 nM; in experiment [2] (setting [6]) it was 66.2 nM.
On to `C[C@]12C[C@H](c3ccc(P(C)(C)=O)cc3)C3=C4CCC(=O)C=C4CC[C@H]3[C@@H]1CC[C@@]2(O)CC#N` [Compound 6], for which the half-inhibitory concentration (IC50) in experiment [1] (setting [5]) is over 1000 nM; in experiment [2] (setting [6]), over 3000 nM.
As for `C[C@]12C[C@H](c3ccc(P(C)(C)=O)cc3)C3=C4CCC(=O)C=C4CC[C@H]3[C@@H]1CC[C@@]2(O)C(F)(F)C(F)(F)F` [Compound 7], the figures for the concentration for half-maximal inhibition (IC50) in experiment [1] (setting [5]) and in experiment [2] (setting [6]) were 8.4 nM and 624 nM, respectively.
Regarding `CCOP(=O)(OCC)c1ccc([C@H]2C[C@@]3(C)[C@@H](CC[C@@]3(O)C(F)(F)C(F)(F)F)[C@@H]3CCC4=CC(=O)CCC4=C32)cc1` [Compound 8], the IC50 in experiment [1] (setting [3]) amounted to 170 nM; in experiment [2] (setting [4]), 168 nM.
With `C=CC[C@]1(O)CC[C@H]2[C@@H]3CCC4=CC(=O)CCC4=C3[C@@H](c3ccc(P(C)(C)=O)cc3)C[C@@]21C` [Compound 9], the IC50 in experiment [1] (setting [5]) is 205 nM; in experiment [2] (setting [6]), over 1000 nM.
As for `C=C(C)[C@]1(O)CC[C@H]2[C@@H]3CCC4=CC(=O)CCC4=C3[C@@H](c3ccc(P(C)(C)=O)cc3)C[C@@]21C` [Compound 10], the results for the IC50 in experiment [1] (setting [5]) and in experiment [2] (setting [6]) were 18.3 nM and over 3000 nM, respectively.
In the case of `C=C(C)[C@]1(O)CC[C@H]2[C@@H]3CCC4=CC(=O)CCC4=C3[C@@H](c3ccc(P(=O)(OCC)OCC)cc3)C[C@@]21C` [Compound 11], the IC50 was found to be 51.3 nM in experiment [1] (setting [3]) and 66.3 nM in experiment [2] (setting [4]).
The like results for `C=CC[C@]1(O)CC[C@H]2[C@@H]3CCC4=CC(=O)CCC4=C3[C@@H](c3ccc(P(=O)(OCC)OCC)cc3)C[C@@]21C` [Compound 13] were, in that order, 170 nM and 30.2 nM.
As for `COP(=O)(OC)c1ccc([C@H]2C[C@]3(C)C(=O)CC[C@H]3[C@@H]3CCC4=CC(=O)CCC4=C32)cc1` [Compound 15], the results for the IC50 in experiment [1] (setting [3]) and in experiment [2] (setting [4]) were 8.8 nM and over 3000 nM, respectively.
The matching figures for `C=C1CCO[C@]12CC[C@H]1[C@@H]3CCC4=CC(=O)CCC4=C3[C@@H](c3ccc(P(=O)(OC)OC)cc3)C[C@@]12C` [Compound 16]: 8.3 nM and 230 nM.
The like results for `C=C1CCO[C@]12CC[C@H]1[C@@H]3CCC4=CC(=O)CCC4=C3[C@@H](c3ccc(P(=O)(O)OC)cc3)C[C@@]12C` [Compound 17] were, in that order, over 1000 nM and over 3000 nM.
As for `CCOP(C)(=O)c1ccc([C@H]2C[C@]3(C)C(=O)CC[C@H]3[C@@H]3CCC4=CC(=O)CCC4=C32)cc1` (stereo partly shown) [Compound 21], in experiment [2] (setting [4]), the IC50 was over 3000 nM.
Turning to `C=C1CCO[C@]12CC[C@H]1[C@@H]3CCC4=CC(=O)CCC4=C3[C@@H](c3ccc(P(C)(=O)O)cc3)C[C@@]12C` [Compound 22, 19,24-Dinorchola-4,9,20-trien-3-one, 1723-epoxy-11-[4-(hydroxy-methyl-phosphinoyl)phenyl]-(11β,17α)-(9Cl)], the IC50 was over 1000 nM in experiment [1] (setting [5]) and over 3000 nM in experiment [2] (setting [6]).
The like results for `C=C1CCO[C@]12CC[C@H]1[C@@H]3CCC4=CC(=O)CCC4=C3[C@@H](c3ccc(P4(=O)OCC(C)(C)CO4)cc3)C[C@@]12C` [Compound 23, 19,24-Dinorchola-4,9,20-trien-3-one, 17,23-epoxy-11-[4-(5,5-Dimethyl-2-oxo-2λ^5-[1,3,2]dioxaphosphinan-2-yl)-phenyl]-, (11β,17α)-(9Cl)] were, in that order, 28.7 nM and 64.3 nM.
Take `C=CC[C@]1(O)CC[C@H]2[C@@H]3CCC4=CC(=O)CCC4=C3[C@@H](c3ccc(P(=O)(c4ccccc4)c4ccccc4)cc3)C[C@@]21C` [Compound 24]: the IC50 in experiment [1] (setting [5]) was found to be 762 nM; in experiment [2] (setting [6]), 48.2 nM.
Take `CCOP(=O)(OCC)c1ccc([C@H]2C[C@@]3(C)[C@@H](CC[C@@]3(O)C#Cc3ccccc3)[C@@H]3CCC4=CC(=O)CCC4=C32)cc1` [Compound 25]: the figures for the IC50 in experiment [1] (setting [3]) and in experiment [2] (setting [4]) were 38.2 nM and 83.8 nM, respectively.
The like results for `CC#C[C@]1(O)CC[C@H]2[C@@H]3CCC4=CC(=O)CCC4=C3[C@@H](c3ccc(P(=O)(OCC)OCC)cc3)C[C@@]21C` [Compound 26] were, in that order, 125 nM and 41.5 nM.
For `CC#C[C@]1(O)CC[C@H]2[C@@H]3CCC4=CC(=O)CCC4=C3[C@@H](c3ccc(P(=O)(c4ccccc4)c4ccccc4)cc3)C[C@@]21C` [Compound 27], the values for the IC50 in experiment [1] (setting [5]) and in experiment [2] (setting [6]) were 381 nM and 16.6 nM, respectively.
The like results for `C/C=C/C[C@]1(O)CC[C@H]2[C@@H]3CCC4=CC(=O)CCC4=C3[C@@H](c3ccc(P(=O)(c4ccccc4)c4ccccc4)cc3)C[C@@]21C` [Compound 28] were, in that order, 660 nM and 129 nM.
On to `C/C=C/C[C@]1(O)CC[C@H]2[C@@H]3CCC4=CC(=O)CCC4=C3[C@@H](c3ccc(P(=O)(OCC)OCC)cc3)C[C@@]21C` [Compound 29], for which the IC50 in experiment [1] (setting [3]) was 160 nM; in experiment [2] (setting [4]), 225 nM.
In the case of `C[C@]12C[C@H](c3ccc(P(=O)(c4ccccc4)c4ccccc4)cc3)C3=C4CCC(=O)C=C4CC[C@H]3[C@@H]1CC[C@@]2(O)C#Cc1ccccc1` [Compound 30], the IC50 came out at 275 nM in experiment [1] (setting [5]) and 93 nM in experiment [2] (setting [6]).
As to `COP(=O)(OC)c1ccc([C@H]2C[C@@]3(C)[C@@H](CC[C@@]3(O)C#Cc3ccccc3)[C@@H]3CCC4=CC(=O)CCC4=C32)cc1` [Compound 31], the figures for the IC50 in experiment [1] (setting [3]) and in experiment [2] (setting [4]) were 7.47 nM and 130 nM, respectively.
For `C[C@]12C[C@H](c3ccc(P(=O)(OCC(F)(F)F)OCC(F)(F)F)cc3)C3=C4CCC(=O)C=C4CC[C@H]3[C@@H]1CCC2=O` [Compound 32], the results for the half-inhibitory concentration (IC50) in experiment [1] (setting [3]) and in experiment [2] (setting [4]) were over 1000 nM and 217 nM, respectively.
Take `C[C@]12C[C@H](c3ccc(P(=O)(Oc4ccccc4)Oc4ccccc4)cc3)C3=C4CCC(=O)C=C4CC[C@H]3[C@@H]1CCC2=O` [Compound 33]: the IC50 in experiment [1] (setting [5]) is over 1000 nM; in experiment [2] (setting [6]), 217 nM.
The like results for `C[C@]12C[C@H](c3ccc(P(=O)(OCc4ccccc4)OCc4ccccc4)cc3)C3=C4CCC(=O)C=C4CC[C@H]3[C@@H]1CCC2=O` [Compound 35] were, in that order, 980 nM and 948 nM.
The like results for `C=C1CCO[C@]12CC[C@H]1[C@@H]3CCC4=CC(=O)CCC4=C3[C@@H](c3ccc(P(=O)(c4ccccc4)c4ccccc4)cc3)C[C@@]12C` [Compound 36, 19,24-Dinorchola-4,9,20-trien-3-one, 17,23-epoxy-11-[4-(diphenyl-phosphinoyl)-phenyl]-, (11β,17α)-(9Cl)] were, in that order, 45 nM and 163 nM.
The like results for `C=C1CCO[C@]12CC[C@H]1[C@@H]3CCC4=CC(=O)CCC4=C3[C@@H](c3ccc(P(=O)(Oc4ccccc4)Oc4ccccc4)cc3)C[C@@]12C` [Compound 37] were, in that order, 3.3 nM and 34.3 nM.
Take `C=C1CCO[C@]12CC[C@H]1[C@@H]3CCC4=CC(=O)CCC4=C3[C@@H](c3ccc(P(=O)(OCC(F)(F)F)OCC(F)(F)F)cc3)C[C@@]12C` [Compound 38, 19,24-Dinorchola-4,9,20-trien-3-one, 17,23-epoxy-11-[4-[Bis-(2,2,2-trifluoro-ethoxy)-phosphoryl]-phenyl]-, (11β,17α)-(9Cl)]: the concentration for half-maximal inhibition (IC50) in experiment [1] (setting [5]) was found to be 29.5 nM; in experiment [2] (setting [6]), 141 nM.

The values are drawn from patent US7671045B2, “17-phosphorous steroid derivatives useful as progesterone receptor modulators” (Janssen Pharmaceutica N.V., priority 2006, dated 2010).
